# In patent US8026218B2, “Bifunctional analgesic compounds for opioid receptor agonists and neurokinin-1 receptor antagonists” (The University of Arizona, priority 2006, dated 2011):
# Like-named read-outs stand apart in the source and are kept apart here. Square brackets hold non-standard residues; d marks the D form. Peptide text beside a SMILES is read from it. * marks the point of attachment. NH(3,5-(CF3)2-benzyl) = FC(F)(F)c1cc(CN*)cc(C(F)(F)F)c1; X1 = OC[C@H]1OC(*)[C@H](O)[C@@H](O)[C@@H]1O; Dmt = Cc1cc(O)cc(C)c1C[C@H](N)C(=O)O; Nle = CCCC[C@H](N)C(=O)O
# Experiments:
# [1] = target: T1, human δ opioid receptors (hDOR) (Homo sapiens, UniProt P41143); experiment: Radioligand competition binding, [3H]DPDPE, hDOR membranes
# T1 construct: expressed in transfected cells; host or cells: HN9.10 neuroblastoma cell line, pCDNA3, neomycin-selected clones
# T1 sequence (P41143 whole entry): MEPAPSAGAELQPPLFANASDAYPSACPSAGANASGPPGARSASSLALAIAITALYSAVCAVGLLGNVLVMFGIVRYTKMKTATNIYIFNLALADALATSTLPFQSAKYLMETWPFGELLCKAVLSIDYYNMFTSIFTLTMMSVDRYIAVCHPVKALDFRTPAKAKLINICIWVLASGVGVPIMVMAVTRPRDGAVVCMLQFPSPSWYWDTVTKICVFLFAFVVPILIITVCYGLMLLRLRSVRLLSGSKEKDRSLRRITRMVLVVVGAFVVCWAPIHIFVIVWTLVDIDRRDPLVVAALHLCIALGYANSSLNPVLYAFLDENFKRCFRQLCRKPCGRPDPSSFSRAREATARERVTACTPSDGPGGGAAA
# [2] = target: T2, rat μ opioid receptors (rMOR) (Rattus norvegicus, UniProt P33535); experiment: Radioligand competition binding, [3H]DAMGO, rMOR membranes
# T2 construct: expressed in transfected cells; host or cells: HN9.10 neuroblastoma cell line, pCDNA3, neomycin-selected clones
# T2 sequence (P33535 whole entry): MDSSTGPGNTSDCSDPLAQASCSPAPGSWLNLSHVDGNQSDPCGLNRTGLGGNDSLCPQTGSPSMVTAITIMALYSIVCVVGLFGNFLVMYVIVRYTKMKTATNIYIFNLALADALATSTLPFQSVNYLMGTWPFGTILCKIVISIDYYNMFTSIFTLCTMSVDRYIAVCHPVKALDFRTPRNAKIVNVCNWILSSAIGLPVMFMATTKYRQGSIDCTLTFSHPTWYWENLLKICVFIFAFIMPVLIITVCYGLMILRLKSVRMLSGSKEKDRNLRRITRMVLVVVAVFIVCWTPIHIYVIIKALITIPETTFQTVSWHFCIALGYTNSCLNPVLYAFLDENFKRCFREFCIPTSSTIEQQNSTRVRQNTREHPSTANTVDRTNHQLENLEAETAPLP
# [3] = target: T3, rat NK1 (rNK1) receptor (Rattus norvegicus, UniProt P14600); experiment: Radioligand competition binding, [3H]substance P, rNK1/CHO membranes
# T3 construct: expressed in transfected cells; host or cells: CHO (rNK-1/CHO cell line from Dr. James Krause)
# T3 sequence (P14600 whole entry): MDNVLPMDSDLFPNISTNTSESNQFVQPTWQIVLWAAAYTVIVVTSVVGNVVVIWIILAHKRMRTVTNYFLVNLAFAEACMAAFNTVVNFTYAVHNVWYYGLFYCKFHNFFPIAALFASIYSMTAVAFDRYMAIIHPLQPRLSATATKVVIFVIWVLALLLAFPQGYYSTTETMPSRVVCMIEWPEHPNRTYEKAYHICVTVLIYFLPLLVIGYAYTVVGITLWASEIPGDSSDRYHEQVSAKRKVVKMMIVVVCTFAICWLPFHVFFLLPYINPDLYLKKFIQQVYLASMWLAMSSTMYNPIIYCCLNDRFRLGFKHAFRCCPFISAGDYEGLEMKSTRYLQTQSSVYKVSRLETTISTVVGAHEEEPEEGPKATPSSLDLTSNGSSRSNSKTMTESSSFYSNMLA
# [4] = target: T4, human NK1 receptor (hNK1) (Homo sapiens, UniProt P25103); experiment: Radioligand competition binding, [3H]-Substance P, hNK1
# T4 construct: expressed in transfected cells
# T4 sequence (P25103 whole entry): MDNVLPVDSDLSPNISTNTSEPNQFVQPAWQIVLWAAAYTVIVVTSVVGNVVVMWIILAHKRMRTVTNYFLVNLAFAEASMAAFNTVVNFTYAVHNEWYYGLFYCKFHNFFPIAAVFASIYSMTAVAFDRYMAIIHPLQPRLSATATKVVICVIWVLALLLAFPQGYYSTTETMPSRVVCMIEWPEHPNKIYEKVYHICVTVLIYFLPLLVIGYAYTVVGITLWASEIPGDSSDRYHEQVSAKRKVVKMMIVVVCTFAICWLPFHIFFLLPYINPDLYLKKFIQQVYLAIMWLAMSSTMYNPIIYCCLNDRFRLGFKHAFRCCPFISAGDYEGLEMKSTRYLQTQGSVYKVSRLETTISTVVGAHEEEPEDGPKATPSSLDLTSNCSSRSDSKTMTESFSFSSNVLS
# [5] = target: T1, human δ opioid receptors (hDOR); experiment: [35S]GTP-γ-S binding assay, hDOR; format: biochemical
# [6] = target: T2, rat μ opioid receptors (rMOR); experiment: biochemical; format: biochemical
# [7] = target: T5, δ opioid receptors (MVD) (Mus musculus, UniProt P32300); experiment: Mouse isolated vas deferens (MVD) assay, opioid agonist
# T5 construct: from tissue; host or cells: mouse (ICR) isolated vas deferens
# T5 sequence (P32300 whole entry): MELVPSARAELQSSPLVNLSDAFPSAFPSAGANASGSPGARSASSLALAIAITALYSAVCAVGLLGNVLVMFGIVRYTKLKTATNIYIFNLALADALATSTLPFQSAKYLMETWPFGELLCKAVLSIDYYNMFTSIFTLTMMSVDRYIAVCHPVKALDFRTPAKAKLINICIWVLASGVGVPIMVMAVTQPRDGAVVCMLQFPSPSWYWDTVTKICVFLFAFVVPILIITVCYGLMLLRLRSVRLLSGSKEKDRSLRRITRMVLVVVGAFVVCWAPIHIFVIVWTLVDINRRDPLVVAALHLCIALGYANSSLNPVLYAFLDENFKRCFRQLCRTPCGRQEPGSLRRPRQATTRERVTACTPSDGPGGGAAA
# [8] = system: μ opioid receptors (GPI); experiment: Guinea pig isolated ileum (GPI) assay, opioid agonist;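 also: inhibition of electrically evoked contractions (0.1 Hz, 0.4 msec, supramaximal voltage) in organ baths at 37 °C, contraction height 3 min after each cumulative dose versus the 1 min before dosing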
# Description: Guinea Pig Isolated Ileum Assay. […] These tissues were tied to gold chains with suture silk and mounted between platinum wire electrodes in 20 mL organ baths at a tension of 1 g and bathed in oxygenated (95:5 O2:CO2) Kreb's bicarbonate buffer at 37° C. and stimulated electrically (0.1 Hz, 0.4 msec duration) at supramaximal voltage. Following an equilibration period, compounds were added cumulatively to the bath in volumes of 14-60 μL until maximum inhibition was reached. A baseline PL-017 was constructed to determine tissue integrity and allow calculation of antagonist activity before opioid analog testing began.
# For opioid data analysis, percentage inhibition was calculated using the average tissue contraction height for 1 min preceding the addition of the agonist divided by the contraction height 3 min after exposure to the dose of agonist. […] IC50 and Emax estimates were determined by computerized nonlinear least-squares analysis (the pharmacological statistics package FlashCalc: Dr. Michael Ossipov, University of Arizona, Tucson, Ariz.). […] A50 values represent the mean of not less than 4 tissues. A50 and Emax estimates were determined by computerized nonlinear least-squares analysis (FlashCalc).
# [9] = target: T6, Substance P receptors (guinea pig NK1) (Cavia porcellus, UniProt P30547); experiment: Guinea pig isolated ileum (GPI) assay with substance P stimulation in presence of 1 μM naloxone
# T6 construct: from tissue; host or cells: guinea pig (Hartley) ileum LMMP, 1 μM naloxone present
# T6 sequence (P30547 whole entry): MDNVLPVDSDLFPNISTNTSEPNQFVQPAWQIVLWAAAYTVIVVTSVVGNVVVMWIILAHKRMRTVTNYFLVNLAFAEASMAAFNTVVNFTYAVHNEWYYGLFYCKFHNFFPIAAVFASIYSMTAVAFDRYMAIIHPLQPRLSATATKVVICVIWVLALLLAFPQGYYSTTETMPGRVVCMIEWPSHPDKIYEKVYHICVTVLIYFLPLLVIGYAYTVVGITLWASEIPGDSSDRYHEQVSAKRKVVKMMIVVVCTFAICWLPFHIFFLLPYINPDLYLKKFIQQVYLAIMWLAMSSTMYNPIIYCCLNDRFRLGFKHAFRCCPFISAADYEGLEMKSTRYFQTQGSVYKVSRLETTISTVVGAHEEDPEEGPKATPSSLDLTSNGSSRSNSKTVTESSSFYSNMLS
# [10] = In vitro stability in rat plasma at 37° C.; format: in vitro ADME; conditions: for half-life at 50 μg/mL: rat, rat plasma
# Description: The derivative compounds were tested for their metabolite stability. The compounds were incubated in rat plasma at 37° C., and aliquots were withdrawn at various time points and analyzed by HPLC to determine the concentration of remaining compound derivatives (FIGS. 15-16, 36, and 47-48).
# In Vitro Stability of compound derivatives in Rat Plasm (Yamamoto, 2007, J. Am. Chem. Soc. submitted). Stock solution of compounds (50 mg/mL in DMSO) were diluted 1000-fold into rat plasma (Lot 24927, Pel-Freez Biologicals, Rogers, Ak.) to result in an incubation concentration of 50 μg/mL. All samples were incubated at 37° C. for 6 h, and 200 μL of aliquots were withdrawn at 1 h, 2 h, 4 h and 6 h. […] The samples were run in triplicate. Discussion.
# [11] = Table 39, read-out: GTP binding rMOR EC50
# [12] = Table 39, read-out: GTP binding rMOR Emax
# [13] = Affinity rNK1 (Ki; nM), Table 23
# [14] = FIG. 47, read-out: T1/2 in rat plasma
compound,measurement,setting,value
C[C@@H](NC(=O)[C@@H](N)Cc1ccc(O)cc1)C(=O)N[C@@H](Cc1c[nH]c2ccccc12)C(=O)OCc1cc(C(F)(F)F)cc(C(F)(F)F)c1 [NP43],Ki,"[1]; Table 33, read-out: Ki (nM) hDOR",100 nM
same,Ki,"[2]; Table 33, read-out: Ki (nM) rMOR",178 nM
same,Ki,"[3]; Ki (nM) rNK1, Table 33",2.94 nM
same,Ki,[4],0.004 nM
same,EC50,"[5]; Table 33, read-out: GTP EC50 (nM) hDOR",90.9 nM
same,EC50,"[6]; Table 33, read-out: GTP EC50 (nM) rMOR",168 nM
same,"MVD δ-agonist, % at 1 μM","[7]; Table 36, at 1 μM",5.5% at 1 μM
same,"GPI μ-agonist, % at 1 μM","[8]; Table 36, at 1 μM",3.3% at 1 μM
same,Kb,"[9]; GPI SP-antagonist Ke (nM), Table 36",49.4 nM
CC(C)C[C@H](NC(=O)[C@@H]1CCCN1C(=O)[C@@H]1CSSC[C@@H](NC(=O)[C@@H](N)Cc2ccc(O)cc2)C(=O)NCC(=O)N[C@@H](Cc2ccccc2)C(=O)N1)C(=O)N[C@@H](Cc1c[nH]c2ccccc12)C(=O)NCc1cc(C(F)(F)F)cc(C(F)(F)F)c1 [TY039],IC50,[1],25.1 nM
same,IC50,[2],398 nM
same,Ki,"[2]; read-out: Ki, rMOR, [3H]DAMGO",200 nM
same,IC50,"[3]; LogIC50, rNK1, [3H]Substance P, Table 20, logarithm of IC50 (negative), CHO cell membranes",1580 nM
same,EC50,"[5]; Table 21, HN9.10 cell, read-out: EC50 (nM), hDOR",0.9 nM
same,Emax,"[5]; Table 21, net total bound/basal binding × 100, read-out: Emax (%), hDOR",37%
same,EC50,"[5]; Table 39, read-out: GTP binding hDOR EC50",50.9 nM
same,Emax,"[5]; Table 39, read-out: GTP binding hDOR Emax",37%
same,EC50,"[6]; Table 21, HN9.10 cell, read-out: EC50 (nM), rMOR",118 nM
same,EC50,"[6]; Table 21, logarithm of EC50 (negative), HN9.10 cell, read-out: LogEC50, rMOR (converted)",126 nM
same,Emax,"[6]; Table 21, net total bound/basal binding × 100, read-out: Emax (%), rMOR",17%
same,EC50,[6]; [11],118 nM
same,Emax,[6]; [12],20%
same,Emax,"[6]; net total bound/basal binding × 100, read-out: Emax, rMOR, [35S]GTP-γ-S binding",< 20%
same,IC50,"[7]; electrically stimulated isolated tissue, read-out: MVD (δ), IC50",73 nM
same,"Opioid agonist GPI (μ), % inh.","[8]; Table 22, at 1 uM, no antagonist activity observed at the tested concentration",10% inh. at 1 uM^d
same,GPI/LMMP opioid(mu) Antagonist,[8]; Table 39,none
same,"GPI/LMMP opioid(mu) agonist, % at 1 uM","[8]; Table 39, at 1 uM",10.1% at
same,agonist effect in the functional assay using GPI,"[8]; at the concentration of 1 μM, words",nearly no agonist effect
same,half-life at 50 μg/mL,[10]; read-out: half life (T1/2) in rat plasma (converted),> 6 h
CC(C)C[C@H](NC(=O)[C@@H]1CCCN1C(=O)[C@@H]1NC(=O)[C@H](Cc2ccccc2)NC(=O)CNC(=O)[C@H](NC(=O)[C@@H](N)Cc2ccc(O)cc2)C(C)(C)SSC1(C)C)C(=O)N[C@@H](Cc1c[nH]c2ccccc12)C(=O)NCc1cc(C(F)(F)F)cc(C(F)(F)F)c1 [TY049],Ki,[3]; [13],4.54 nM
same,Ki,[4],0.18 nM
same,Emax,[6]; read-out: GTP binding rMOR Emax,25%
same,half-life at 50 μg/mL,[10]; [14],> 24 h
"CCCC[C@@H]1NC(=O)[C@H](Cc2ccccc2)NC(=O)CNC(=O)[C@H](NC(=O)[C@@H](N)Cc2ccc(O)cc2)C(C)(C)SSC(C)(C)[C@@H](C(=O)N[C@@H](Cc2c[nH]c3ccccc23)C(=O)NCc2cc(C(F)(F)F)cc(C(F)(F)F)c2)NC(=O)[C@@H]2CCCN2C1=O [TY047] (HELM PEPTIDE1{Y.[CC(C)(S[*:3])[C@@H](N[*:1])C(=O)[*:2]].G.F.[Nle].P.[Pen].W.[FC(F)(F)c1cc(CN[*:1])cc(C(F)(F)F)c1]}$PEPTIDE1,PEPTIDE1,2:R3-7:R3$$$V2.0; N-terminus assumed)",Ki,[1],152 nM
same,Ki,[2],1970 nM
same,Ki,[3]; [13],163 nM
same,EC50,[6]; [11],2910 nM
same,half-life at 50 μg/mL,[10]; [14],> 24 h
"CCCC[C@H](NC(=O)[C@H](Cc1ccccc1)NC(=O)CNC(=O)[C@@H](C)NC(=O)[C@@H](N)Cc1c(C)cc(O)cc1C)C(=O)N1CCC[C@H]1C(=O)N[C@@H](COC1O[C@H](CO)[C@@H](O)[C@H](O)[C@H]1O)C(=O)N[C@@H](Cc1c[nH]c2ccccc12)C(=O)NCc1cc(C(F)(F)F)cc(C(F)(F)F)c1 (some centres unmarked) [TY056] (H-[Dmt][dA]GF[Nle]PS(X1)W-{NH(3,5-(CF3)2-benzyl)}; N-terminus assumed)",Ki,[2],1.9 nM
same,Ki,"[3]; Affinity rNK1 (Ki; nM), Table 25",10 nM
same,Ki,[4],0.0017 nM
same,EC50,"[6]; Table 25, read-out: GTP binding rMOR EC50",44.9 nM
same,Emax,"[6]; Table 25, read-out: GTP binding rMOR Emax (%)",66%
same,Emax,[6]; [12],66%
same,IC50,[7],3.62 nM
same,GPI/LMMP SP Agonist (IC50; nM),"[9]; Table 39, at 30 nM",none
same,stability in the rat plasma,[10]; words,stable
